Results taken from patent US11873298B2, “Compounds and uses thereof” (JANSSEN PHARMACEUTICA NV, priority 2017, dated 2024).
Values joined by “and” are separate entries in the source; they are usually repeats but may differ in a detail not shown here. Equal values may be shown once.

What was measured:
Assay type in all cases: cell-based
Ole1 = molecular target: T1, Ole1 (Saccharomyces cerevisiae, UniProt P21147); assay: Growth inhibition of yeast strain expressing Ole1 as sole desaturase; conditions: for IC50 / OLE1 % Max Inhibition: yeast strain expressing Ole1 as sole desaturase
T1 construct: expressed in transfected cells; host or cells: S. cerevisiae ole1Δ strain (W303 pdr1Δ pdr3Δ background), plasmid pRS316 with TDH3 promoter and CYC1 terminator
T1 sequence (P21147 1-510): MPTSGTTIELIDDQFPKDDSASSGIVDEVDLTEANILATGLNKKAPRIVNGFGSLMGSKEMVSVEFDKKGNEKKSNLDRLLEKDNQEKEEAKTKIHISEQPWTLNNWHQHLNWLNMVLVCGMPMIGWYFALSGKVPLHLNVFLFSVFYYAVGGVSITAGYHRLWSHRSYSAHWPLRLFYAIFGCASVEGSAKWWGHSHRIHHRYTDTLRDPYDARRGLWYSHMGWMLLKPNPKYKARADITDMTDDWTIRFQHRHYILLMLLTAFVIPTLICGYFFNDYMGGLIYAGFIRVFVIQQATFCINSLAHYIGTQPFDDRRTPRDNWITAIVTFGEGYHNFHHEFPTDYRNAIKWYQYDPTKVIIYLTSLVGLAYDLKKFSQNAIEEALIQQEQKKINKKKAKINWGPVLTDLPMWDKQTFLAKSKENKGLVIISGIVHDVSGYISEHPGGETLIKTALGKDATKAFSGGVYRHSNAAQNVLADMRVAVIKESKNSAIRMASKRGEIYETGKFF
Procedure, shortened: (§1)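 Measured by optical density at 600 nm, growth of desaturase-dependent yeast (OLE1 deleted; human SCD1, human SCD5 or yeast Ole1 supplied from plasmid) was scored after 24 h (Ole1) or 40 h (SCD1, SCD5) at 30° C. in galactose media lacking uracil with DMSO-delivered compound.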

SCD1 = molecular target: T2, SCD1 (Homo sapiens, UniProt O00767); assay: Growth inhibition of humanized yeast strain expressing SCD1 as sole desaturase; conditions: for IC50 / SCD1 % Max Inhibition: humanized yeast strain expressing SCD1
T2 construct: host or cells: S. cerevisiae ole1Δ strain (W303 pdr1Δ pdr3Δ background), plasmid pRS316 with TDH3 promoter and CYC1 terminator
T2 sequence (O00767 1-359): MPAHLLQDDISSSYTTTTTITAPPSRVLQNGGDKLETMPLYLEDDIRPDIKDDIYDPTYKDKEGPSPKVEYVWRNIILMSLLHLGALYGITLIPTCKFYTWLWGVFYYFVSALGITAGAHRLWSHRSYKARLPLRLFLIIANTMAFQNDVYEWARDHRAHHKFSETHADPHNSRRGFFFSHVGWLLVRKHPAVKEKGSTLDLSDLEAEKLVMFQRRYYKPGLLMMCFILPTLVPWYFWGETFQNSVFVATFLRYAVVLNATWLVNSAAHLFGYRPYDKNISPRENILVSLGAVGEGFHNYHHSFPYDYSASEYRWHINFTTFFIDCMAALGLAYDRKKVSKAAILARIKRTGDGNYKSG
Procedure, shortened: as §1

SCD5 = molecular target: T3, SCD5 (Homo sapiens, UniProt Q86SK9); assay: Growth inhibition of humanized yeast strain expressing SCD5 as sole desaturase; conditions: for IC50 / SCD5 % Max Inhibition: humanized yeast strain expressing SCD5
T3 construct: host or cells: S. cerevisiae ole1Δ strain (W303 pdr1Δ pdr3Δ background), plasmid pRS316 with TDH3 promoter and CYC1 terminator
T3 sequence (Q86SK9 1-330): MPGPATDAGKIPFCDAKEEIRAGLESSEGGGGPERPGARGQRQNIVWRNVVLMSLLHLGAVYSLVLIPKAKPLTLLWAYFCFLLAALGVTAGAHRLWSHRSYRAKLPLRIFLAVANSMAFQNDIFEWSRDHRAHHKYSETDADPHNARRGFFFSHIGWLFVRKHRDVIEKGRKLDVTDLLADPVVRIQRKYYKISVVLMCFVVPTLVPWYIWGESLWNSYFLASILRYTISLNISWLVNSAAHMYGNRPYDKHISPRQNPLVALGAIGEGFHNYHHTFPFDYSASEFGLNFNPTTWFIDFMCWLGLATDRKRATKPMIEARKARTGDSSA
Procedure, shortened: as §1

Compound	IC50 (Ole1)	OLE1 % Max Inhibition (Ole1)	IC50 (SCD1)	SCD1 % Max Inhibition (SCD1)	IC50 (SCD5)	SCD5 % Max Inhibition (SCD5)	growth of yeast expressing OLE1 in presence of inhibitor (Ole1; FIG. 6)	half-maximal inhibitory concentration (IC50) (SCD1; SCD1 humanized strain, FIG. 6)	half-maximal inhibitory concentration (IC50) (SCD5; SCD5 humanized strain, FIG. 6)
Cc1nn(C)c2cc(-c3noc(C4CCN(C(=O)[C@H]5CC(=O)N(c6ccc(C#N)cc6)C5)CC4)n3)ccc12 [Compound 307]	> 45 µM	7.8% and 4.08%	≥ 45 µM	78.2% and 70.58%	> 45 µM	52.5% and 27.45%	–	–	–
CCOc1ccc(-c2noc(C3CCN(C(=O)C4CN(C(=O)c5ccccc5)C4)CC3)n2)cc1OC [Compound 237]	> 45 µM	18.53%	> 45 µM	71.76%	32.6 µM	45.34%	–	–	–
Cn1ncc2ccc(NC(=O)C3CCN(C(=O)C4CC(=O)N(c5ccccc5)C4)CC3)cc21 (stereo not drawn) [Compound 213]	> 45 µM	94.72%	> 45 µM	86.35%	> 45 µM	85.33%	–	–	–
Cn1ncc2c1CN(c1noc(C3CCN(C(=O)C4CC(=O)N(c5ccccc5)C4)CC3)n1)CC2 (stereo not drawn) [Compound 243]	> 45 µM	94.60%	> 45 µM	94.50%	> 45 µM	72.11%	–	–	–
Cc1nn(C)c2cc(-c3noc(C4CCN(C(=O)c5ccc(Cl)cc5)CC4)n3)ccc12 [Compound 291]	> 45 µM	–	–	5.0% and 0.30%	> 45 µM	8.5% and 3.29%	–	–	–
Cn1c(=O)n(C)c2cc(-c3noc(C4CCN(C(=O)[C@@H](CO)NC(=O)c5ccccc5)CC4)n3)ccc21 [Compound 214]	> 45 µM	15.08%	–	65.73%	> 45 µM	74.58%	–	–	–
Cc1ccc(N2CC(C(=O)N3CCC(c4nc(-c5ccc6c(C)nn(C)c6c5)no4)CC3)CC2=O)cn1 (stereo not drawn) [Compound 179]	38.7 µM	76.70%	> 45 µM	106.53%	> 45 µM	85.02%	–	–	–
Cc1nn(C)c2cc(-c3noc(N4C[C@H]5CN(C(=O)CNC(=O)c6ccccc6)C[C@H]5C4)n3)ccc12 [Compound 207]	> 45 µM	5.39%	> 45 µM	86.42%	> 45 µM	72.56%	–	–	–
CCOc1ccc(-c2noc(C3CCN(C(=O)C4CN(c5ccccc5)C(=O)CO4)CC3)n2)cc1OC (stereo not drawn) [Compound 235]	> 45 µM	84.04%	> 45 µM	74.46%	> 45 µM	87.47%	–	–	–
Cc1nnc(-c2ccc(N3CCC(Oc4cc(F)ccc4Cl)CC3)nn2)o1 [CAY10566, reference compound]	–	–	–	–	–	–	resistant	low nanomolar	low nanomolar
CCOC(=O)C(C)(C)n1cc2ccc(-c3noc(C4CCN(C(=O)C5CC(=O)N(c6ccccc6)C5)CC4)n3)cc2n1 (stereo not drawn) [Compound 193]	> 45 µM	89.35%	> 45 µM	80.72%	> 45 µM	85.76%	–	–	–
O=C(C1CC(=O)N(c2cccc(Cl)c2)C1)N1CCC(c2nc(N3CCC4(CC3)COC4)no2)CC1 (stereo not drawn) [Compound 325]	> 45 µM	79.2%	> 45 µM	73.7%	> 45 µM	67.2%	–	–	–
CCc1nn(C)c2cc(-c3noc(C4CCN(C(=O)CNC(=O)c5ccccc5)CC4)n3)ccc12 [Compound 309]	> 45 µM	8.0%	–	80.6%	> 45 µM	14.7%	–	–	–
CCn1nc(C)c2ccc(-c3noc(C4CCN(C(=O)CNC(=O)c5ccccc5)CC4)n3)cc21 [Compound 299]	> 45 µM	17.5% and 13.58%	≥ 45 µM	89.6% and 62.80%	> 45 µM	30.1% and 22.61%	–	–	–
COc1cccc(-c2noc(C3CC(=O)N(c4ccc(C)c(C)c4)C3)n2)c1 (stereo not drawn) [Compound 489]	> 45 µM	94.30%	–	68.84%	41.1 µM	61.11%	–	–	–
Cn1c(=O)n(C)c2cc(-c3noc(C4CCN(C(=O)CNC(=O)c5cccnc5)CC4)n3)ccc21 [Compound 233]	> 45 µM	18.46%	> 45 µM	73.65%	> 45 µM	74.91%	–	–	–
Cc1nn(C)c2cc(-c3noc(N4CCN(C(=O)CN5Cc6ccccc6C5=O)CC4)n3)ccc12 [Compound 219]	> 45 µM	3.50%	> 45 µM	95.22%	> 45 µM	89.83%	–	–	–
CCOc1ccc(-c2noc(N3CCC(C(=O)N4CCO[C@@H](c5ccccc5)C4)CC3)n2)cc1OC [Compound 217]	> 45 µM	10.39%	36.9 µM	57.90%	> 45 µM	12.62%	–	–	–
Cc1nn(C)c2cc(-c3noc(C4CCN(C(=O)N5CCOCC5)CC4)n3)ccc12 [Compound 311]	> 45 µM	90.8%	–	72.9%	> 45 µM	60.5%	–	–	–
Cc1nn(C)c2cc(-c3noc(C4CCN(C(=O)C5CNC(=O)C5)CC4)n3)ccc12 (stereo not drawn) [Compound 126]	> 45 µM	73.29%	> 45 µM	69.80%	30 µM	79.08%	–	–	–
Cn1ncc2ccc(-c3noc(C4CCN(C(=O)c5ccnc(-c6ccccc6)c5)CC4)n3)cc21 [Compound 208]	> 45 µM	96.63%	> 45 µM	14.04%	> 45 µM	5.68%	–	–	–
